Test results: patent US6521655B1, “Substituted imidazoles useful in the treatment of inflammatory diseases” (Ortho-McNeil Pharmaceutical, Inc., priority 1997, dated 2003)
pIC50: −log10 of the molar value.

What was measured:
TNF-α [1] = test: in vivo LPS induced TNF-α production, mice; parameters: species or system Mice (BALB/cJ females); details: 25 mg/kg, oral, LPS 1 mg/kg i.p.
Description: (§1) Thirty minutes after dosing, the animals were injected intraperitoneally with LPS at 1 mg/kg and returned to their cages for 1 h. Animals were anesthetized by CO2, exsanguinated by cardiac puncture and whole blood collected (0.1-0.7 mL). The blood was allowed to clot and serum was transferred to a centrifuge tube. This sample was centrifuged, serum was collected, aliquoted and frozen at −80° C. Samples were tested by commercial ELISAs for TNF-α (Endogen for mouse TNF-α and Biosource for rat TNF-α).

TNF-α [2] = test: in vitro whole cell assay, LPS-stimulated PBMC, TNF-α ELISA; format: cell-based; details: LPS-stimulated human PBMC
Description: Aside from the enzyme assay, many of the compounds of the invention were tested in an in vitro whole cell assay using peripheral blood mononuclear cells (“PBMC”) which were obtained from human blood as follows. Freshly obtained venous blood was anticoagulated with heparin, diluted with an equal volume of phosphate buffered saline (“PBS”) and placed in a sterile tube or other container. Aliquots (30 mL) of this mixture were transferred to centrifuge tubes which were underlaid with Ficoll-Hypaque (15 mL). The prepared tubes were centrifuged at 400×g without braking for 30 min at room temperature. Approximately ½ to ⅔ of the platelet layer above the mononuclear cell band was removed with a pipette. The majority of the mononuclear cell layer was carefully removed using a pipette and these PBMCs were diluted with PBS and spun at 600×g for 15 min. […] A small volume of the suspension was removed for counting on a hemocytometer and the remaining preparation was centrifuged at 200×g for 15 min at room temperature. The recovered pelleted PMBC were resuspended in RPMI/1% FCS to a concentration of 1.67×10^6/mL. To run the assay, the PBMC suspension (180 μL) was transferred to duplicate wells of a 96-well flat-bottom microtiter plate and incubated for 1 h at 37° C. […] A solution (10 μL) of LPS in RPMI/1% FCS (200 ng/mL) was added and the wells were incubated overnight at 37° C. The supernate ([…]) was removed from each well and diluted with RPMI/1% FCS (400 μL). The samples were analyzed for TNF-α using a commercial ELISA kit (Genzyme).

purified recombinant p38 = target: T1, purified recombinant p38 (Homo sapiens, UniProt Q16539); test: p38 in vitro enzyme assay (33P-ATP, myelin basic protein substrate); format: biochemical; details: for pIC50: read-out: p-38 IC50
T1 construct: 6xHis; made in house; host or cells: E. coli
Description: As discussed previously, agents which inhibit the activity of the enzyme p38, inhibit the production of the inflammatory cytokines TNF-α, and IL-1β. Compounds of the invention were measured for their ability to inhibit the activity of p38 by the following in vitro assay.
A solution (38 μL) of purified recombinant p38 (where the amount of enzyme was determined empirically considering the linear range of the assay and the acceptable signal to noise ratio; 6×His-p38 expressed in E.coli), myelin basic protein substrate (also determined empirically), a buffer of pH 7.5 (Hepes:25 mM, MgCl2:10 mM, MnCl2:10 mM) were added to 92 wells of a 96-well round bottom polypropylene plate. The remaining wells were used for control (“CTRL”) and background (“BKG”). The CTRL was prepared with the enzyme, substrate buffer and 2% DMSO, and the BKG was prepared with substrate buffer and 2% DMSO. A solution (12 μL) of the test compound in DMSO (compounds were diluted to 125 μM in 10% DMSO/H2O and assayed at 25 μM where the final DMSO concentration was 2%) was added to the testing wells. The ATP/^33P-ATP solution (10 μL: containing 50 μM unlabeled ATP and 1 μCi ^33P-ATP) was added to all wells and the completed plates were mixed and incubated at 30° C. for 30 min. Ice-cold 50% TCA/10 mM sodium phosphate (60 μL) were added to each well and the plates were kept on ice for 15 min. The contents of each well were transferred to the wells of a 96-well filterplate (Millipore, MultiScreen-DP) and the filterplate was placed on a vacuum manifold, fitted with a waste collection tray. The wells were washed five times with 10% TCA/10 mM sodium phosphate (200 μL) under vacuum. MicroScint-20 scintillant was added, the plates were sealed using Topseal-S sheets and counted in a Packard TopCount scintillation counter using a ^33P liquid program with color quench correction, where the output is in color quench-corrected cpm. The % inhibition of the test compounds was calculated by the following formula: % inhibition=[1−(sample -BKG)/(CTRL-BKG)]×100.
Although compounds were initially tested at […], if warranted the compounds were tested at 4-fold increments above and below that concentration. In addition, IC50s were calculated for some compounds using the Deltagraph 4-parameter curve fitting program.

IL-1β = test: in vitro IL-1β assay, plastic-adherent cells from PBMC, LPS stimulation, ELISA; format: cell-based; details: Homo sapiens, read-out: inhibition of production of IL-1β, IC50
Description: The IL-1β activity of select compounds of the invention was determined by the following in vitro assay. Plastic-adherent cells were prepared from PBMC. Briefly, PBMCs were added to the wells of a 96-well plate as above, incubated for 1 h at 37° C., and the adherent cells prepared by gently resuspending the non-adherent cells with a pipettor, removing and discarding them and gently washing the wells 3 times with 200 μL culture medium. Additional culture medium (180 μL) was added to the wells after the final wash. Compound addition, LPS stimulation, incubation and supernate harvest were as for TNF-α. Supernates were assayed for interleukin-1β using a commercial ELISA (Genzyme).

TNF-α [3] = test: in vivo LPS induced TNF-α production, rats; parameters: species or system rats (Lewis males); details: 25 mg/kg, oral, LPS 1 mg/kg i.p.
Description: as §1

T1 sequence (Q16539 whole entry): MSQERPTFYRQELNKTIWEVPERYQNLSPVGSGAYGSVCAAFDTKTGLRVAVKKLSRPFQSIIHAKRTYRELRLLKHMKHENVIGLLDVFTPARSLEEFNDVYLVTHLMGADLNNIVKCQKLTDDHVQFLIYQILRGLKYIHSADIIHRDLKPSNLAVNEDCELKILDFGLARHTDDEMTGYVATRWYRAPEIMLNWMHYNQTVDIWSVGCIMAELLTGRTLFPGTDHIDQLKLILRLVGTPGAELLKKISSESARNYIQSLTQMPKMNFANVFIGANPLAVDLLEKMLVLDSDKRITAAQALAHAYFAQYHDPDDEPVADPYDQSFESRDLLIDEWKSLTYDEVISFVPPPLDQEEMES

| SMILES | pIC50 (TNF-α [2]) | other results |
| --- | --- | --- |
| OCCC#Cc1nc(-c2ccc(F)cc2)c(-c2ccncc2)n1CCCc1ccccc1 [Cpd. 4] | 8.52 | % Inhibition TNF-α Mice (TNF-α [1]): 49.6%; pIC50 (purified recombinant p38): 6.19; pIC50 (IL-1β): 8.15; % Inhibition TNF-α Rats (TNF-α [3]): 91% |
| Fc1ccc(-c2[nH]c(/C=C/Cl)nc2-c2ccncc2)cc1 [compound 8] |  | pIC50 (purified recombinant p38): 5.82 |
| C[Si](C)(C)CCOCn1c(C=C(Br)Br)nc(-c2ccncc2)c1-c1ccc(F)cc1 [compound 10] |  | p-38 % inhibition (purified recombinant p38; @ 5 μm): 16% @ 5 μm |
| O/N=C/c1nc(-c2ccncc2)c(-c2ccc(F)cc2)[nH]1 [compound 13] | 7.35 |  |
| Fc1ccc(-c2nc(C#CCCCCl)n(CCCc3ccccc3)c2-c2ccncc2)cc1 [compound 14] | 8.40 |  |
| O=C(Nc1ccccc1)OCCC#Cc1nc(-c2ccc(F)cc2)c(-c2ccncc2)n1CCCc1ccccc1 [compound 15] | 7.42 |  |
| Fc1ccc(-c2nc(C#CCCCl)n(CCCc3ccccc3)c2-c2ccncc2)cc1 [compound 16] | 8.22 |  |
| CN(C)CCC#Cc1nc(-c2ccc(F)cc2)c(-c2ccncc2)n1CCCc1ccccc1 [compound 17] | 8.52 |  |
| C[Si](C)(C)CCOCn1c(C=C(Br)Br)nc(-c2ccc(F)cc2)c1-c1ccncc1 [compound 18] | 5.82 |  |
| OCCCC#Cc1nc(-c2ccc(F)cc2)c(-c2ccncc2)[nH]1 [compound 19] | 7.07 | % Inhibition TNF-α Mice (TNF-α [1]): 29% |
| C[Si](C)(C)CCOCn1c(C#CCCO)nc(-c2ccncc2)c1-c1ccc(F)cc1 [compound 20] | < 5.00 |  |
| OCCC#Cc1nc(-c2ccc(F)cc2)c(-c2ccncc2)[nH]1 [compound 21] | 7.10 |  |
| O=C1c2ccccc2C(=O)N1CCCC#Cc1nc(-c2ccc(F)cc2)c(-c2ccncc2)[nH]1 [compound 22] | 6.15 |  |
| OCCCCC#Cc1nc(-c2ccc(F)cc2)c(-c2ccncc2)[nH]1 [compound 24] | 7.00 | % Inhibition TNF-α Mice (TNF-α [1]): 73% |
| CCCC#Cc1nc(-c2ccncc2)c(-c2ccc(F)cc2)n1COCC[Si](C)(C)C [compound 26] | < 5.70 | % Inhibition TNF-α Mice (TNF-α [1]): 0% |
| CCCC#Cc1nc(-c2ccncc2)c(-c2ccc(F)cc2)[nH]1 [compound 28] | 7.10 | % Inhibition TNF-α Mice (TNF-α [1]): 88% |
| O=C1c2ccccc2C(=O)N1CCCC#Cc1nc(-c2ccncc2)c(-c2ccc(F)cc2)[nH]1 [compound 29] | 6.70 |  |
| C#Cc1nc(-c2ccc(F)cc2)c(-c2ccncc2)[nH]1 [compound 30] | 6.82 |  |
| Fc1ccc(-c2nc(C#CBr)[nH]c2-c2ccncc2)cc1 [compound 31] | 6.60 |  |

| SMILES | pIC50 (TNF-α [2]) | other results |
| --- | --- | --- |
| Fc1ccc(-c2nc(C=NOCc3ccccc3)[nH]c2-c2ccncc2)cc1 [compound 32] | 7.10 |  |
| O=[N+]([O-])c1ccc(CON=Cc2nc(-c3ccc(F)cc3)c(-c3ccncc3)[nH]2)cc1 [compound 33] | 6.82 |  |
| CCCC#Cc1nc(-c2ccc(F)cc2)c(-c2ccncc2)n1CCCc1ccccc1 [compound 34] | 8.00 | % Inhibition TNF-α Mice (TNF-α [1]): 53% |
| OCCCC#Cc1nc(-c2ccc(F)cc2)c(-c2ccncc2)n1CCCc1ccccc1 [compound 35] | 8.10 | % Inhibition TNF-α Mice (TNF-α [1]): 68%; p-38 % inhibition (purified recombinant p38; @ 20 μm): 99% @ 20 μm |
| N#CCCCC#Cc1nc(-c2ccc(F)cc2)c(-c2ccncc2)n1CCCc1ccccc1 [compound 36] | 8.05 | % Inhibition TNF-α Mice (TNF-α [1]): 69.3%; pIC50 (purified recombinant p38): 5.82; pIC50 (IL-1β): 7.89 |
| O=C1c2ccccc2C(=O)N1CCCn1c(C#CCCO)nc(-c2ccc(F)cc2)c1-c1ccncc1 [compound 37] | 6.80 |  |
| Fc1ccc(-c2nc(C#CCCCc3ccccc3)n(CCCc3ccccc3)c2-c2ccncc2)cc1 [compound 38] | 7.40 |  |
| CCCCSCCCC#Cc1nc(-c2ccc(F)cc2)c(-c2ccncc2)n1CCCc1ccccc1 [compound 39] | 6.70 |  |
| CCCCS(=O)(=O)CCCC#Cc1nc(-c2ccc(F)cc2)c(-c2ccncc2)n1CCCc1ccccc1 [compound 40] | 8.19 |  |
| OCCCCC#Cc1nc(-c2ccc(F)cc2)c(-c2ccncc2)n1CCCc1ccccc1 [compound 43] | 8.28 | % Inhibition TNF-α Mice (TNF-α [1]): 53%; p-38 % inhibition (purified recombinant p38; @ 20 μm): 98% @ 20 μm |
| Fc1ccc(-c2nc(C=C(Br)Br)[nH]c2-c2ccncc2)cc1 [compound 44] | 6.70 | p-38 % inhibition (purified recombinant p38; @ 20 μm): 93% @ 20 μm |
| C[Si](C)(C)CCOCn1c(C#CCCCN2C(=O)CCC2=O)nc(-c2ccc(F)cc2)c1-c1ccncc1 [compound 45] | 6.19 |  |
| N#CC=Cc1nc(-c2ccc(F)cc2)c(-c2ccncc2)[nH]1 [compound 46] | 6.60 |  |
| OCC#Cc1nc(-c2ccc(F)cc2)c(-c2ccncc2)n1CCCc1ccccc1 [compound 47] | 8.14 |  |
| COCCC#Cc1nc(-c2ccc(F)cc2)c(-c2ccncc2)n1CCCc1ccccc1 [compound 49] | 8.52 |  |
| O=C(OCCC#Cc1nc(-c2ccc(F)cc2)c(-c2ccncc2)n1CCCc1ccccc1)c1ccccc1 [compound 50] | 8.70 |  |
| C=CC#Cc1nc(-c2ccc(F)cc2)c(-c2ccncc2)n1CCCc1ccccc1 [compound 51] | 8.26 |  |
| CC(=O)OCCC#Cc1nc(-c2ccc(F)cc2)c(-c2ccncc2)n1CCCc1ccccc1 [compound 52] | 8.59 |  |
